Key:
[1] = Auto-oxidation of APO in solution by real-time 1D 1H NMR; format: physicochemical; conditions: freshly dissolved in DPBS, 25 °C, 36 h
Procedure: Fig. 2 Effect of redox-sensitive APO on MLKL oligomerization. A Chemical structure of APO. APO undergoes auto-oxidation to form the oxidized form (Ox-APO), while the addition of DTT preserves the reduced form (Re-APO). The red highlights indicate the sites where APO loses hydrogen and electrons during the oxidation process. B Real-time 1D ^1H NMR spectra showing the degree of oxidation of APO. APO was dissolved from its powdered form in DPBS and incubated at 25 °C for 36 h. Real-time 1D ^1H NMR spectra were measured at a 2 h intervals after filtration through a 0.2 μm syringe filter to remove precipitates. […] C MLKL oligomerization is inhibited by APO. THP-1 cells were treated with TBZ and Re-APO or Ox-APO for 8 h. Western blot analysis of WCLs was performed under non-reducing and reducing conditions using the indicated antibodies. Percentage changes of p-MLKL oligomer band relative to GAPDH were shown. The p value for MLKL oligomer band intensity was calculated based on the average intensity of the tetramer and octamer bands. Octa octamer, Tetra tetramer, Mono monomer. Mean ± SEM (n = 3). **p < 0.001, ns not significant, one-way ANOVA. D THP-1 cells were treated with TBZ and Ox-APO or Re-APO for 8 h and then stained with DAPI and MLKL for confocal microscopy. […] The signal intensity of MLKL fluorescence from the plasma membrane to the cytosol was measured using FluoView FV1000 software. […]

p-MLKL = assay: Western blot of phosphorylated MLKL in whole cell lysates; format: cell-based, human; conditions: 8 h
Procedure: To identify potential inhibitors of the necroptosis pathway targeting MLKL or the process of p-MLKL pore formation on the membrane, we screened a library of 2150 compounds, including FDA-approved drugs and those in phase 1–3 clinical trials, using THP-1-HMGB1-Lucia™ cells expressing the HMGB1-luciferase fusion protein. The cells were treated with a necroptosis-inducing mixture containing TNF-α, BV6, and Z-VAD-FMK (TBZ) in addition to the compound library (Fig. 1A). The supernatants were harvested to measure luciferase activities for necroptosis. The luciferase activities of cell supernatants treated with TBZ alone were considered as the maximum release (100%) of HMGB1-luciferase. NEC-1, a known RIP1 inhibitor used in both humans and mice, was used as a positive control. […] Next, we performed a propidium iodide (PI) uptake assay to exclude cytotoxic compounds using THP-1 cells. Then, we selected candidate molecules that were arbitrarily less than 30% of those treated with TBZ. […] Next, the inhibition levels of p-MLKL were tested to select MLKL-targeting molecules (Figs. 1C and S1A). Compounds that reduced p-MLKL levels to less than 30% of TBZ-treated controls were considered as potential inhibitors of MLKL phosphorylation. Conversely, compounds that maintained p-MLKL levels above 70% were selected because they are presumed to prevent the formation of pores in the plasma membrane by interfering with oligomerization.
The cells were harvested and lysed in 1× RIPA buffer (R4100-010, GenDEPOT, Katy, TX, USA) containing protease (P3100-001, GenDEPOT) and phosphatase (1862495, Thermo Fisher Scientific) inhibitors. WCLs were then centrifuged at 20,000×g for 30 min at 4 °C and subjected to non-reducing or reducing 8–12% SDS-PAGE gel electrophoresis. The membrane was blocked with 5% non-fat milk in TBS and probed with antibodies. Antibodies to hMLKL (14993S), mMLKL (97705S), phospho-hMLKL (Ser358) (91689S), phospho-mMLKL (Ser345) (37333S), phospho-hRIP1 (Ser166) (65746S), mRIP1 (3493S), phospho-mRIP1 (Ser321) (38662S), phospho-hRIP3 (Ser227) (93654), mRIP3 (95702S), p-mRIP3 (Thr231/Ser232) (91702S), and LDH (2012S) (Cell Signaling Technology, Danvers, MA, USA), and GAPDH (LF-PA0018, Abfrontier, S. Korea), hRIP1 (ab72139, Abcam, Cambridge, UK), hRIP3 (sc-135170, Santa Cruz Biotechnology, Dallas, TX, USA), HMGB1 (ab78923, Abcam), and LAMP1 (ab24170, Abcam) antibodies were used.
Fig. S1 Assessment of p-MLKL inhibition to identify MLKL-targeting molecules. (A) Quantification graph corresponding to Fig. 1C. […] Whole-cell lysates (WCLs) were collected and subjected to Western blot analysis under reducing conditions using antibodies against p-MLKL, MLKL, and GAPDH. The p-MLKL/MLKL ratio was quantified and compared to that of TBZ-treated cells. Data represent the mean of three independent experiments. (B) Quantification graph corresponding to Fig. 1D. […] Cytosolic and membrane fractions were collected and analyzed by Western blot under reducing conditions. The levels of p-MLKL and p-RIP1 were normalized to LDH (cytosolic marker) and LAMP1 (membrane marker), respectively. Quantified ratios were compared to those of TBZ-treated cells (n = 3 independent experiments).

CN1CCc2cccc3c2[C@@H]1Cc1ccc(O)c(O)c1-3 [S62, (6aS)-6-methyl-5,6,6a,7-tetrahydro-4H-dibenzo[de,g]quinoline-10,11-diol]
time to saturation of APO oxidation [1]: 24 h
activity at 20 µM (p-MLKL; Homo sapiens, THP-1, TBZ and 20 μM compound, whole cell lysates, read-out: p-MLKL/MLKL ratio relative to TBZ-treated cells (% Value)): 100%
effect on p-MLKL, p-RIP3 and p-RIP1 in whole cell lysates (p-MLKL; THP-1, TBZ, 20 μM): little to no effect

— PMC12518639, “Apomorphine is a novel necroptosis inhibitor targeting mixed lineage kinase domain-like protein oligomerization” (Cell Death Discovery, 2025)
